One compound from patent US12276039B2, “Crystal of europium compound and method for producing crystal of europium compound” (OHARA INC., priority 2020, dated 2025) can be followed below.

The test system of this series is Hela cancer cells. Nature of the series: Toxicity evaluation: cell density of Hela cancer cells cultured with FA (folic acid)-modified particles. The settings on record: FA-modified particles on Hela cells, FIG. 9. The format is cell-based. The protocol:
Particles of Examples 1 to 3 or Comparative Examples 1 to 2 were subjected to toxicity evaluation by cancer cell imaging and fluorescence intensity measurement by the following methods.
To 250 mg of the particles of Examples 1 to 3 or Comparative Examples 1 to 2, 12 ml of an HCl aqueous solution (pH=2) was added, and ultrasonic treatment was carried out. Next, a solution containing 0.78 ml (3.3 mmol) of 3-aminopropyltriethoxysilane (APTES) in 5 mL of ethanol was prepared and added to the ultrasonic-treated solution to obtain a mixed solution. The mixed solution was stirred for 20 hours at 40° C. (pH<6.5). […]
After the above cells were cultured, a polystyrene dish (TCPS) including cells was washed twice with 1 ml of phosphate buffered saline (PBS), then FA (folic acid)-modified particles which had not taken up by the cells were removed, 0.1 ml of 0.05% Trypsin-EDTA was placed in a TCPS including cells, followed by allowing to stand still in a CO2 incubator for 12 minutes, and cells were peeled off from TCPS. […] Thereafter, the supernatant was discarded, 20 ml of medium was added to the tube, pipetting was carried out about 20 times, 1 ml was aliquoted into 15 ml-tubes, the cell suspension was placed into a disposable hemocytometer using a micropipette outside a clean bench, the cell number was confirmed under a microscope, and the average value (cell/cm^2) was calculated. […]

As for `O.O.O.O.O.O.[Cl][Eu]([Cl])[Cl]` [Comparative Example 2, Europium chloride hexahydrate], the cytotoxicity result is “cytotoxicity due to the elution”. Under “3, 12, 24, 36 and 48 hours after spraying”, the “cell proliferation behavior (average cell density)” value is on record as “a normal cell proliferation behavior was not observed”.
